Results as given in patent US20080057534A1, “Microbe-sensitive indicators and use of the same” (Kimberly-Clark Worldwide, Inc., priority 2006, published 2008).

Experiments:
[1] = test system: S. aureus (ATCC #6538); test: Reichardt's dye coated paper, response to bacterial contamination; details: paper brush-coated with 80 mg/10 mL acetonitrile; 100 μL aliquots of 10^7 to 10^4 CFU/mL
Method: (§1) This experiment illustrated the ability of a surface coating of Reichardt's dye to respond to bacterial contamination. A sheet of paper was brush-coated with a Reichardt's dye solution (80 mg/10 mL acetonitrile). To this paper was added 100 μL aliquots of 10^7, 10^6, 10^5, and 10^4CFU/mL E. coli (ATCC #8739) or S. aureus (ATCC #6538) solutions. Water was used as a negative control. The dye color was rapidly discharged when contaminated by both types of bacteria, but more rapidly for the S. aureus. It was later determined that while both bacteria solutions were indeed at 10^7 CFU/mL concentrations, the actual concentration of the S. aureus solution was 7×10^7 CFU/mL compared to 1×10^7 CFU/mL for the E. coli solution.

[2] = test system: E. coli (ATCC #8739); test: as above; details: paper brush-coated with 80 mg/10 mL acetonitrile; 100 μL aliquots of 10^7 to 10^4 CFU/mL
Method: as §1

[3] = test system: aged chicken juice known to have a high bacterial count; test: Dye coating on ceramic surface with and without TWEEN 80, drop of aged chicken juice; details: 80 mg/10 mL acetonitrile with TWEEN 80 (200 μL)
Method: A solution of Reichardt's dye (80 mg/10 mL acetonitrile) and TWEEN® 80 (200 μL) polyoxyethylene surfactant (from Fischer Scientific, Pittsburgh, Pa.) was prepared. This solution was then used to coat a ceramic surface and allowed to air dry. A second solution of Reichardt's dye (80 mg/10 mL acetonitrile) without surfactant was placed on the surface and allowed to air dry as well. After drying, a drop of aged chicken juice known to have a high bacterial count was placed on each coating area. […] Furthermore, the addition of TWEEN® surfactant allowed for easy removal of the dye from the surface.

[4] = test system: S. aureus; test: Reichardt's dye coated self-adhesive stickers, transfer of bacteria by gloved hand; details: 160 mg/10 mL and 80 mg/10 mL acetonitrile coatings; 10^7 CFU/mL S. aureus
Method: A sheet of paper self-adhesive stickers (Avery-Dennison) was also brush-coated with two different concentrations of Reichardt's dye solution (160 mg/10 mL acetonitrile, 80 mg/10 mL acetonitrile). The stickers were applied to the lid and latch mechanism of a Huggies® Wet Wipes box. A gloved hand was used to transfer 10^7 CFU/mL S. aureus to the surface of the stickers.

[5] = test system: E. coli bacteria; test: Reichardt's dye/TMB coated towel, E. coli suspension drop-wise; details: coating of Reichardt's dye and TMB on SCOTT paper towel
Description: Additionally, a SCOTT® paper towel having a coating of Reichardt's dye and TMB chemistries was exposed to suspension of E. coli bacteria drop-wise. The towel area that came in contact with the bacteria decolorized to a white spot in less than 10 seconds.

[6] = Reichardt's dye/TMB coated towel, dilute bleach solution; type: physicochemical; details: mixture of Reichardt's dye and TMB on SCOTT paper towel
Description: A mixture of Reichardt's dye and 3,3′,5,5′-tetramethylbenzidine (TMB) was coated onto a SCOTT® paper towel and allowed to air-dry.

[7] = De-colorization by acid (model of microbial contamination) and reversal by strong base; type: physicochemical
Method: A CCI Multigloss yellow base pigment (available from Color Converting, Inc. of Hazleton, Pa.) was applied to a white SMS (spunbond/meltblown/spunbond) nonwoven material (available from Kimberly-Clark Corporation of Irving, Tex.) using a standard hand roller. The treated nonwoven was oven-dried at 100° C. for approximately five minutes. A solution of Reichardt's dye was prepared by mixing about 200 mg of Reichardt's dye (obtained from Sigma-Aldrich of St. Louis, Mo.) with approximately 5 g of octanol (obtained from Sigma-Aldrich). This solution was then applied in the shape of a “t” to the dried yellow pigment on the nonwoven material using a clean hand roller. A control material was prepared by applying the Reichardt's dye/octanol mixture in the “t” pattern to a sheet of untreated white SMS nonwoven material. The samples were again oven-dried at 100° C. for approximately five minutes. In previous studies, it has been discovered that strong acids can also cause de-colorization of the dye in a manner that is representative of microbial contamination. Thus, strong acids are sometimes used to model the reaction of a microbe for initial experiments. A drop of pH 2 Aldrich buffer was applied to both the control and test substrates in three places and allowed to react for three minutes. […] An observation was made that the yellow color became even more visible as time passed (presumably due to the complete de-colorization of all dye molecules in the area of the drop as the acid dried).
This experiment illustrated the ability of a strong base to reverse decolorization of Reichardt's dye. Several drops of Reichardt's dye (160 mg in 10 ml of acetonitrile) were pipetted onto a SCOTT® towel and allowed to dry. […] The blue/purple color of Reichardt's dye returned after the 1 N NaOH was added.

[8] = test system: S. aureus; test: Reichardt's dye coatings from different solvents on towels, S. aureus aliquots; details: for color change of coating: 100 μl S. aureus
Method: The behavior of Reichardt's dye coatings made using various different solvents was evaluated. Solutions of Reichardt's dye in acetonitrile, isopropanol, and xylenes were prepared and the solutions were used to coat SCOTT® kitchen rolls towels and allowed to air-dry.

[9] = test system: budgie feces suspension in tap water; test: Merocyanine dye coated paper towel, budgerigar feces suspension; details: coated SCOTT towel, drops of suspension
Method: Budgerigar feces was collected from a caged pet budgie, and shaken in approximately 10 ml of Atlanta city domestic tap water. A 0.5-g quantity of N-methyl merocyanine dye, synthesized as described above, was dissolved in 20 ml deionized water and coated onto a SCOTT® kitchen roll paper towel by dipping the towel into the solution, allowing the excess to drip off, and then allowing the coated toweling to dry at ambient conditions. The paper towel was stained a deep orange color by the dye. […] As a control, Atlanta city domestic tap water was dropped onto a different area of the towel and while the color was diluted somewhat by the water, the area remained orange.

[10] = test system: bacteria and other microbes in aged urine; test: Merocyanine dye coated paper towel, aged female human urine
Method: Female human urine was collected and stored in a glass jar at room temperature for 8 days. N-methyl merocyanine dye of the structure below was synthesized as described above. A 0.5-g quantity of the dye was dissolved in 20 ml deionized water and coated onto a SCOTT® kitchen roll paper towel by dipping the towel into the solution, allowing the excess to drip off, and then allowing the coated toweling to dry at ambient conditions. The paper towel was stained a deep orange color by the dye.
As a control, the aged urine was filtered through a 0.2 micron filter to remove bacteria and other microbes.
Female human urine was collected and stored for 24 hours at 37° C. Pooled female urine may be expected to have a bacterial loading of approximately 1×10^5 CFU/ml after storage under these conditions. A 0.5-g quantity of N-methyl merocyanine dye, synthesized as described above, was dissolved in 20 ml deionized water and coated onto a SCOTT® kitchen roll paper towel by dipping the towel into the solution, allowing the excess to drip off, and then allowing the coated toweling to dry at ambient conditions. The paper towel was stained a deep orange color by the dye.

[11] = test system: microbe contamination; test: Microbe-insensitivity of signal graphic colorants
[12] = test system: aged chicken juice; test: Dye spots on woven cotton fabric, aged chicken juice
Description: A transparent film covering half of a fresh chicken on a polystyrene tray (from supermarket) was stored at room temperature for three weeks. The pale yellow juices that collected in the polystyrene tray were collected using a pipette and used for tests.
A 47-mg quantity of 1-docosyl-4-(4-hydroxystyryl)-pyridinium bromide (from Aldrich Chemical) was mixed with 10 g dimethylformamide. A small amount of solids remained after shaking and settling. The orange supernatant fluid was dropped onto woven cotton fabric of basis weight (29.2 cm×20.3 cm=6.888 g) to make orange-yellow colored circles. One drop of 1N sodium hydroxide solution was added to one orange-yellow spot on the cotton fabric, changing the color from orange-yellow to a pinkish orange.
The color change was rapid on cotton.

[O-]c1c(-c2ccccc2)cc(-[n+]2c(-c3ccccc3)cc(-c3ccccc3)cc2-c2ccccc2)cc1-c1ccccc1 [Reichardt's dye, 4-(2,4,6-triphenylpyridinium-1-yl)-2,6-diphenylphenolate]
time of de-colorization [1]: < 1 min
time of de-colorization [2]: < 1 min
de-colorization faster than area without TWEEN surfactant [3]: 20 to 30 s
color discharge of coated stickers [4]: rapidly de-colorized
time to decolorize to a white spot [5]: less than 10 seconds
color response to bleach [6]: de-colorizing
color change on acid ([7]; 160 mg in 10 ml acetonitrile on SCOTT towel, acetic acid and Aldrich buffer pH 2.0): rapid de-colorization
reversal of decolorization by base ([7]; drop of 1 N NaOH on acid-decolorized spots): rapid re-colorization
de-colorization revealing underlying pigment ([7]; drop of pH 2 Aldrich buffer on SMS nonwoven over yellow pigment, three minutes): underlying yellow color was clearly visible
color change of coating ([8]; acetonitrile solution-based coating): rapid de-colorization
decolorization in response to microbial contamination ([8]; isopropanol as solvent, dye concentration adjusted): readily and easily observed
color change of coating ([8]; isopropanol solution-based coating): No visible color change
color change of coating ([8]; xylenes solution-based coating): No visible color change

COc1cc(/C=C/c2cc[n+](C)cc2)ccc1[O-] [N-methyl merocyanine dye]
color change [9]: immediate color change from deep orange to pale yellow
color change ([10]; urine stored 24 hours at 37° C., approx. 1×10^5 CFU/ml expected): immediate color change from deep orange to pale yellow
color change ([10]; urine stored 24 hours at 37° C., filtered through 0.2 micron filter (control)): did not cause a color change
color change ([10]; urine stored 8 days, filtered through 0.2 micron filter (control)): did not cause a color change
color change ([10]; urine stored at room temperature for 8 days): immediate color change from deep orange to pale yellow

Cc1ccc(Nc2ccc(Nc3ccc(C)cc3S(=O)(=O)[O-])c3c2C(=O)c2ccccc2C3=O)c(S(=O)(=O)[O-])c1.[Na+].[Na+] [Acid Green 25]
sensitivity to microbes [11]: fairly microbe-insensitive

Cc1cc(-c2cc(C)c(N)c(C)c2)cc(C)c1N [TMB, 3,3′,5,5′-tetramethylbenzidine]
bleach indicator color development on bacteria [5]: No orange/yellow color was observed to develop
color response to bleach [6]: turning orange/yellow color

CCCCCCCCCCCCCCCCCCCCCC[n+]1ccc(C=Cc2ccc(O)cc2)cc1.[Br-] [1-docosyl-4-(4-hydroxystyryl)-pyridinium bromide]
color change ([12]; orange-yellow spots on cotton fabric): color change to very pale yellow
color change ([12]; pinkish-orange areas (dye + NaOH soln.) on cotton): color change from pinkish-orange to very pale yellow
